In brackets after ≈: the same amount, converted by molar mass. Square brackets hold non-standard residues; d marks the D form. Peptide text beside a SMILES is read from it.
Assays:
[1] = system: E. coli ML35; conditions: ML35, 18 h
Protocol: To assess antimicrobial activity, the MIC50 and MIC90 were measured using broth microdilution following CLSI guidelines. […] Each experiment was performed in triplicate. Meropenem (Sigma, Darmstadt, Germany) and colistin were used as control antibiotics. Cation-adjusted Mueller–Hinton broth (CAMHB) (Becton, Dickinson and Company, Franklin Lakes, USA) with supplied calcium (50 mg/L) and magnesium (10 mg/L) was used for the CLSI-test condition. Bacteria in midlog phase and peptides were separately diluted in CAMHB. The bacteria and peptide solutions were then mixed in 96-well polyethylene plates (SPL, Gyeonggi-do, Korea) and incubated for 18 h at 37 °C. The final concentration for bacteria was 5 × 10^5 CFU/ml. […] The MIC was defined to be the lowest concentration of peptide without visible turbidity by comparing with control antibiotics with the unaided eye. […] MICs in albumin and acetic acid solutions were measured using the same protocol but with 0.2% bovine serum albumin (Bovogen, Keilor, Australia), 0.01% acetic acid (Merck, New Jersey, USA), and CAMHB with both calcium and magnesium. In addition, MICs used in the antibiotic resistance acquisition test, the outer–inner membrane permeation test, and the transmembrane potential test and for FE-SEM were individually determined. […] Inhibitory activity unidentifiable by direct observation was determined by counting the CFUs. […]

[2] = system: MDR A. baumannii; test: Killing kinetics in the SEM sample; format: cell-based, Acinetobacter baumannii; conditions: 2 × 10^8 cfu/ml, x1 MIC, PBS, after 4 hours
Protocol: FE-SEM was used to observe peptide-induced changes in bacterial morphology. MDR A. baumannii (ATCC BAA-1605) and MDR S. aureus (KCCM 40510) were cultured in CAMHB to log phase and washed in PBS. Bacteria and peptides were diluted in PBS, after which aliquots of bacteria (50 μl) and peptides (50 μl) were mixed to yield the following final concentrations: MDR A. baumannii or MDR S. aureus, 2 × 10^8 CFU/ml; WCopW29, 2.5 μM. Mixtures were deposited onto cover glass slips and incubated for 0 min, 15 min, 30 min, 1 h or 4 h. After incubation, the bacteria were fixed with paraformaldehyde (4%) and osmium tetroxide (1%) (Sigma, Darmstadt, Germany), washed with water, and freeze-dried overnight. Freeze-dried samples were Pt-coated and placed in an S-4700, EMAX System field emission scanning electron microscope (Hitachi, Tokyo, Japan). Bacterial morphologies were imaged and recorded on video at magnifications of 10,000× and 25,000×.
Antimicrobial kinetics for each peptide and each bacterial strain were assessed using FE-SEM. […] Each experiment was performed in triplicate.

CC[C@@H](C)[C@@H](NC(=O)[C@@H](Cc1c[nH]c2ccccc12)NC(=O)[C@H](NC(=O)[C@@H](CC(C)C)NC(=O)[C@H](N)Cc1c[nH]c2ccccc12)C(C)C)C(=O)N[C@H](Cc1c[nH]c2ccccc12)C(=O)N[C@H](CCCNC(=N)N)C(=O)N[C@H](CCCNC(=N)N)C(=O)N[C@H](CCCNC(=N)N)C(N)=O [WCopW29] (H-[dW][dL][dV][dW][dI][dW][dR][dR][dR]-NH2)
MIC at OM-IM permeation condition, E. coli ML35 [1]: 5 µM (≈ 6.85 µg/mL)
Loss of colony forming [2]: 99%

Reference: PMC9643456, “Matching amino acids membrane preference profile to improve activity of antimicrobial peptides” (Communications Biology, 2022)
